Measurements: patent US20200297867A1, “SURFACE FUNCTIONALIZATION OF LIPOSOMES AND LIPOSOMAL SPHERICAL NUCLEIC ACIDS (SNAS)” (EXICURE,INC., priority 2016, published 2020)
“Also recorded” adds a separate entry of the source.

Tests used:
[1] = Sterile filtration through 0.22 μm PES syringe filter; assay type: physicochemical; details: 0.22 μm sterile filter; inferred from HEK hTLR4 activity after filtration
Method: (§1) GLA (Avanti Polar Lipids) was resuspended in dimethylsulfoxide (DMSO) at 1 mg/mL. GLA in DMSO was mixed with an aqueous solution of liposomes (L-GLA) or PBS (GLA alone) such that the final DMSO concentration was 2%. DMSO is miscible in aqueous solutions, and allows GLA to condense on the surface of SNAs as the organic solution is diluted. Modulation of GLA functionalized to the surface of liposomes can be achieved by adjusting the ratio of GLA to liposome. The DMSO was removed from the liposomal solution by diafiltration using tangential-flow filtration (TFF) with a hollow fiber filter (750 kDa cut-off). These liposomes which have been surface functionalized with GLA (with a loading of 50 molecules/liposome) may then be further surface modified with other molecules. L-GLA or GLA alone was then sterile filtered through a 0.22 μm PES sterile syringe filter (VWR) to remove any non-functionalized GLA or GLA aggregates.
GLA alone was prepared using the same method used to prepare L-GLA but without the presence of liposomes. Free or unbound GLA will aggregate and cannot pass through a sterile filter.

hTLR4 = molecular target: T1, hTLR4 (Homo sapiens, UniProt O00206+Q9Y6Y9); experiment: Experiment 4: activation of HEK hTLR4 cells pre- and post-sterile filtration, QuantiBlue; assay type: cell-based; details: post-sterile filtration through 0.22 μm PES filter; max 15 μM GLA, 1:3 serial dilution, 7 dilutions; 24 hours
T1 construct: expressed in transfected cells; host or cells: HEK huTLR4 (HEK hTLR4) cells
T1 sequence (O00206 24-839): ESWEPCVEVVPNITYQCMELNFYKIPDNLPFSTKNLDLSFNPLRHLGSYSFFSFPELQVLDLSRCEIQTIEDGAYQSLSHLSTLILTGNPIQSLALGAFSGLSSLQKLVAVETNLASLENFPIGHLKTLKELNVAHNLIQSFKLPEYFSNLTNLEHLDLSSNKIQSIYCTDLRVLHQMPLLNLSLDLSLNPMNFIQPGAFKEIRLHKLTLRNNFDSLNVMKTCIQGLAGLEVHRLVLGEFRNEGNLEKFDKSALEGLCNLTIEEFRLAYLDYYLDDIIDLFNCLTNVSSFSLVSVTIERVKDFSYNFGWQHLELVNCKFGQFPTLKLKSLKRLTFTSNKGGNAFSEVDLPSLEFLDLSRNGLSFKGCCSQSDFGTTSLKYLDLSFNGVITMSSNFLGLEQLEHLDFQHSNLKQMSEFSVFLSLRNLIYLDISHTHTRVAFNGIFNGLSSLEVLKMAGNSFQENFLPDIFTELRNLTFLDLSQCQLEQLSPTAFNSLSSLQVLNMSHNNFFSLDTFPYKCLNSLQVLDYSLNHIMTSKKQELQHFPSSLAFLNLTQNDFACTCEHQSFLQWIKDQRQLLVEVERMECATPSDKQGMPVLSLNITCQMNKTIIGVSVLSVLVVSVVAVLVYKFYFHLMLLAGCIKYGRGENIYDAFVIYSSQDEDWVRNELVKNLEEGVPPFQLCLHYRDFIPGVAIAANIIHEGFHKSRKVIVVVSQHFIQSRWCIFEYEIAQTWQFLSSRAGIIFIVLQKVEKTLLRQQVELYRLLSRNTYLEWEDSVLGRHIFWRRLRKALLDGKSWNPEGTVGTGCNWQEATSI
T1 sequence (Q9Y6Y9 17-160 limits assumed): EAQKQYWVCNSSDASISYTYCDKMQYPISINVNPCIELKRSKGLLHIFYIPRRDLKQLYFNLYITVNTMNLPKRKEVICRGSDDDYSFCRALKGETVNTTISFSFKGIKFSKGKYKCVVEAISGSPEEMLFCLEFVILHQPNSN
Method: FIG. 4. […] HEK hTLR4 cells were treated with 15 μM of GLA (for each compound tested) with a 1:3 serial dilution for 7 dilutions.
as §1, with “aggregates. […]” for “aggregates.”
QuantiBlue detection media was purchased from Invivogen. […] After development of color using the standard curve as a reference, the plate was read using a fluorescence plate reader (Synergy 4) at an absorbance of 650 nm.

## CCCCCCCCCCCCCC(=O)O[C@H](CCCCCCCCCCC)CC(=O)N[C@H]1[C@H](OC[C@H]2O[C@H](O)[C@H](NC(=O)C[C@H](O)CCCCCCCCCCC)[C@@H](OC(=O)C[C@H](O)CCCCCCCCCCC)[C@@H]2O)O[C@H](CO)[C@@H](OP(=O)(O)O)[C@@H]1OC(=O)C[C@@H](CCCCCCCCCCC)OC(=O)CCCCCCCCCCCCC.N [GLA alone, glycopyranoside lipid A]
[1]
  passage through sterile filter: removed by sterile filtration
hTLR4
  activation of HEK hTLR4 cells: failed to activate; also recorded: does not
